# Read-outs that look alike come from different tables or passages of the source.
# Columns and labels:
# FLNA = FLNA (Homo sapiens, UniProt P21333); assay: FLNA binding affinity screen
# [1] = biological target: T1, FLNA in A7 cell membranes (Homo sapiens, UniProt P21333); assay: [3H]NLX binding to membranes from FLNA-expressing A7 cells (competition); conditions: for displacement of [3H]NLX binding to A7 membranes: FIG. 3a; for attenuation of [3H]NLX binding to A7 cell membranes: 10 μM peptide, 500 pM [3H]NLX
# T1 construct: expressed in transfected cells; host or cells: A7, a subclone of human melanoma M2, stably transfected with human FLNA cDNA; membranes
# Protocol: To confirm FLNA as the high-affinity target of NLX, [^3H]NLX binding to the human melanoma cell line M2 and its subclone A7 was assessed. The M2 subclone lacks FLNA and MOR and its subclone A7 is stably transfected with human FLNA cDNA (obtained from Drs. Stossel and Ohta at Harvard Medical School).
# Membranes prepared from A7 cells (50 μg) were incubated in binding medium consisting of 50 mM Tris HCl, pH 7.5; 100 mM NaCl; and protease and protein phosphatase inhibitors with 500 pM [^3H]NLX for 30 minutes at 37° C. Total incubation volume was 500 μl. Non-specific binding was defined by 1 μM NTX. […] Reactions were terminated by, rapid filtration through GF/B membranes under vacuum. The filters were washed twice with 5 ml ice-cold binding medium, and [^3H]NLX retained on the filters was measured by liquid scintillation spectrometry.
# (§1) To determine the NLX binding site on FLNA, various overlapping peptides encoding the c-terminal section of FLNA were used to compete for [^3H]NLX binding to FLNA using either A7 cell membranes or purified FLNA from A7 or SK-N-MC cells. Peptides were prepared by Sigma-Genosys (The Woodlands, Tex.). The reaction mixture consisted of 100 μg A7 membranes or 2 μg purified FLNA, 500 pM [^3H]NLX, and 10 μM of either FLNA2550-2560, FLNA2556-2565, FLNA2561-2570, FLNA2566-2575 or FLNA2576-2581 in 500 μl binding medium. The reaction was carried out at 37° C. for 30 minutes and terminated by rapid filtration through GF/B membranes under vacuum. The filters were washed twice with 5 ml ice-cold binding medium, and [^3H]NLX retained on the filters was measured by liquid, scintillation spectrometry.
# To determine the essential amino acid residue(s) within the NLX-interacting pentapeptide, four additional pentapeptides, each with one amino acid residue replaced by alanine, were used along with the correct FLNA2561-2565 pentapeptide to compete for [^3H]NLX binding to FLNA using 100 μg A7 cell membranes. Peptides were generated by Sigma-Genosys. The reaction mixture consisted of 500 pM [^3H]NLX, 100 μg A7 membranes, and 10 μM pentapeptide [AAKGL, (SEQ ID NO:13); VAKGL (SEQ ID NO:14); VAAGL (SEQ ID NO:12); VAKAL (SEQ ID NO:15) or VAKGA (SEQ ID NO:16)] in 500 μl binding medium. The reaction was conducted at 37° C. for 30 minutes and terminated by rapid filtration through GF/B membranes under reduced pressure. The filters were washed twice with 5 ml ice-cold binding medium, and [^3H]NLX retained on the filters was measured by liquid scintillation spectrometry.
# MOR-Gs coupling [2] = assay: Acute morphine-induced MOR Go-to-Gs coupling switch in organotypic striatal slice cultures; format: cell-based, rat; conditions: for effect on acute morphine-induced coupling switch by MOR: pre-treatment 10 μM peptide
# Protocol: Tissues were harvested 5, 15 or 60 minutes after the drug exposure by centrifugation. For determination of MOR-G protein coupling, slices were homogenated to generate synaptic membranes and cytosolic fractions. Synaptic membranes (400 μg) were then solubilized with 0.5% digitonin/0.2% sodium cholate/0.5% NP-40 in 250 μl of immunoprecipitation buffer (25 mM HEPES, pH 7.5; 200 mM NaCl, 1 mM EDTA, 50 μg/ml leupeptin, 10 μg/ml aprotinin, 2 μg/ml soybean trypsin inhibitor, 0.04 mM PMSF and mixture of protein phosphatase inhibitors). Following centrifugation, striatal membrane lysates were immunoprecipitated with immobilized anti-Gαs/olf or -Gαo (Santa Cruz) conjugated with immobilized protein A-agarose beads (Pierce-Endogen). The level of MOR in anti-Gαs/olf or -Gαo immunoprecipitates was determined by Western blotting using specific anti-MOR antibodies.
# pS133-CREB = assay: Acute morphine-induced CREB S133 phosphorylation in organotypic striatal slice cultures; format: cell-based, rat; conditions: for pS133CREB detection, treatment alone: without morphine; for pS133CREB level in striatal tissue: 100 μM
# Protocol: CREB in the solubilized cytosol and nucleus was immunoprecipitated with an anti-CREB antibody (Santa Cruz) and the level of pS^133-CREB was then determined by Western blotting using a specific antibody directed against pS^133-CREB (Santa Cruz).
# [3] = cited from earlier work
# MOR-Gs coupling [4] = assay: Chronic morphine-induced MOR Go-to-Gs coupling switch in organotypic striatal slice cultures; format: cell-based, rat; conditions: for effect on NLX-mediated prevention of cellular indices of morphine tolerance (Go-to-Gs switch and cAMP): 10 μM peptide added to morphine plus 10 pM NLX
# Protocol: For determination of MOR-G protein coupling, slices were homogenated to generate synaptic membranes. […] Following centrifugation, striatal membrane lysates were immunoprecipitated with immobilized anti-Gαs/olf or -Gαo conjugated with immobilized protein G-agarose beads. The level of MOR in anti-Gαs/olf or -Gαo immunoprecipitates was determined by Western blotting using specific anti-MOR antibodies.
# MOR = assay: Stimulation of MOR screen; format: biochemical
# Excerpt: In that Table, the log P value is the logarithm of a compound's partition coefficient between n-octanol and water [log(coctanol/cwater)], and is a well established measure of the compound's […]. “C Log P” shown in the Table is a calculated Log P value that is obtained using a program copyrighted (1988-2008) by Pomona College and BioByte, Inc. of Claremont, Calif.
# [5] = system: other Go-coupled receptors; assay: Stimulation of other Go-coupled receptors; format: biochemical; conditions: 0.1 μM screen
# purified human FLNA = biological target: T2, purified human FLNA (Homo sapiens, UniProt P21333); assay: [3H]NLX binding to immunopurified FLNA; conditions: for attenuation of [3H]NLX binding to purified human FLNA: 10 μM peptide, 500 pM [3H]NLX
# T2 construct: made in house
# Protocol: as §1
# [6] = co-treatment 100 pM with 100 μM morphine
# [7] = pre-treatment 10 μM peptide, 100 μM morphine
# Protocol for cAMP accumulation: Tissues were homogenized by sonication and protein precipitated with 1M TCA. The supernatant obtained after centrifugation was neutralized using 50 mM Tris, pH 9.0. The level of cAMP in the brain lysate was measured by a cAMP assay kit (PerkinElmer Life Science, Boston) according to manufacturer's instructions.
# T1 sequence (P21333 whole entry): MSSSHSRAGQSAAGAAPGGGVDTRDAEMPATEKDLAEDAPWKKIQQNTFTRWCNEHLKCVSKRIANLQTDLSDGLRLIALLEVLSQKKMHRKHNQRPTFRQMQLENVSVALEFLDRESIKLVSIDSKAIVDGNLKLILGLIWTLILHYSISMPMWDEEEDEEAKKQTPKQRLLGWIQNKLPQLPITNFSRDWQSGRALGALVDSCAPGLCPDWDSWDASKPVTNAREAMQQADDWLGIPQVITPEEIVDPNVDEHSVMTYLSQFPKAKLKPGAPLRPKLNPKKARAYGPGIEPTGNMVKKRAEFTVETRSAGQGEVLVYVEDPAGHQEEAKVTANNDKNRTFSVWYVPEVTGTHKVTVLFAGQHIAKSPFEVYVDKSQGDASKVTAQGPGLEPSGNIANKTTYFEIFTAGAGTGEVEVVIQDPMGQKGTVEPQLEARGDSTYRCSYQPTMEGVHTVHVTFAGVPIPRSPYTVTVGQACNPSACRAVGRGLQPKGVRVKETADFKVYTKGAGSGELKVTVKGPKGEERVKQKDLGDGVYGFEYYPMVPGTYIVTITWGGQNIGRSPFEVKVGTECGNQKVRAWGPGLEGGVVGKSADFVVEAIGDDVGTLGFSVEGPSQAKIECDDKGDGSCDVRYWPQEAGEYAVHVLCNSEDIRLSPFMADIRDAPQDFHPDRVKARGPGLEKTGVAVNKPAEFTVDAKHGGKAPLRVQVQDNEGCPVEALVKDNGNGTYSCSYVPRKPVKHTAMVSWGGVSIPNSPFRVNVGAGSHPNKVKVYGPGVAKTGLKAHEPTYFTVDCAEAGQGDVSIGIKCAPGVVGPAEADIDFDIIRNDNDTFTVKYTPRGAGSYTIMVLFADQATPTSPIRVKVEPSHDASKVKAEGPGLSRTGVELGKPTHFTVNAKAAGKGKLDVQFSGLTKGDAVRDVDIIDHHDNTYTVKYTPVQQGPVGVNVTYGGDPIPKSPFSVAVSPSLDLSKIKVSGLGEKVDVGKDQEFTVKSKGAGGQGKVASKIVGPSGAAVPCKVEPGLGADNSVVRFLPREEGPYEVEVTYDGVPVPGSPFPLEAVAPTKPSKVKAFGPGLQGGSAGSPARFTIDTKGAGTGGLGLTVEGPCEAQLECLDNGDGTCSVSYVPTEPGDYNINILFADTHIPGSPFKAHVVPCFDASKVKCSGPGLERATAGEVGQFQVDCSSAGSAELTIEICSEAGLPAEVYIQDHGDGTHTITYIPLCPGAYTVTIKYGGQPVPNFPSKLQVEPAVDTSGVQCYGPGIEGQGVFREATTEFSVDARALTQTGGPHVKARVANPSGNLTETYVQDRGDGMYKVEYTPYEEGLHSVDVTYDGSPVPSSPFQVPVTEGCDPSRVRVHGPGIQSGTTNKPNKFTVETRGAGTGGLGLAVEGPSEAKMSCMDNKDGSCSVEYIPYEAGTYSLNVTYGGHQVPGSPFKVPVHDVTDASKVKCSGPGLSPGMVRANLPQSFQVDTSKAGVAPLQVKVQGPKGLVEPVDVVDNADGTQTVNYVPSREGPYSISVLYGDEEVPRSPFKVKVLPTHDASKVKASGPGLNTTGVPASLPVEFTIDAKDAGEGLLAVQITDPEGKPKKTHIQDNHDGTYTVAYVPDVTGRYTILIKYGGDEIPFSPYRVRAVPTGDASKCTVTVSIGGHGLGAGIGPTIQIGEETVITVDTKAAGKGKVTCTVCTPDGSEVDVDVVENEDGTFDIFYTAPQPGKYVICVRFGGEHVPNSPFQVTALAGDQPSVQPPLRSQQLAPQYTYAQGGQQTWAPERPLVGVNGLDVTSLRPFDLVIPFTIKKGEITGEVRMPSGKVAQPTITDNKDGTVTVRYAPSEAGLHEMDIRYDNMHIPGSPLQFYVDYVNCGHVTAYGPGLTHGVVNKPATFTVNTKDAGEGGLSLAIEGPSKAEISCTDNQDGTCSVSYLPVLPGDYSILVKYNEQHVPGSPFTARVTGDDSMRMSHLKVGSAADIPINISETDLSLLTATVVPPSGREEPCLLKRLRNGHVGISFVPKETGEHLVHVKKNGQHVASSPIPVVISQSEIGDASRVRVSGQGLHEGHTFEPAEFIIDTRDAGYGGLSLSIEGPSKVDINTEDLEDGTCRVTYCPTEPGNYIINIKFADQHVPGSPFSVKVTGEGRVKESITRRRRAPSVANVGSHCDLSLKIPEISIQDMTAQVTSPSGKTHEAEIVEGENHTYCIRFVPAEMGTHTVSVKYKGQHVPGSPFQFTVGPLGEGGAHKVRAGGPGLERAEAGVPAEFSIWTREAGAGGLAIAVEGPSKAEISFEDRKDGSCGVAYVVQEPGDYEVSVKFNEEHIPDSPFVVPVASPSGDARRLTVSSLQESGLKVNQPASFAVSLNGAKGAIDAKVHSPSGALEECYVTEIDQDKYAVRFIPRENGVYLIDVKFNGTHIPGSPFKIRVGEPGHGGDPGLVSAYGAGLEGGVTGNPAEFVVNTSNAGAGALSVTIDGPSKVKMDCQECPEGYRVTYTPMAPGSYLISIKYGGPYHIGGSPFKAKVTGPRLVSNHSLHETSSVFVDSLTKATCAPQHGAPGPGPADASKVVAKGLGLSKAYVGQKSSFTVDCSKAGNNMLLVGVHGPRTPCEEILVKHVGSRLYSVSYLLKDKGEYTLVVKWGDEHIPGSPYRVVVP
# T2 sequence (P21333 whole entry): as above
# Sequence of FLNA (P21333 whole entry): as above
compound,measurement,setting,value
"O=C1CC[C@@]2(O)[C@H]3Cc4ccc(O)c5c4[C@@]2(CCN3CC2CC2)[C@H]1O5 [Naltrexone, naltrexone]",Kd,FLNA,3.9 pM
same,displacement of [3H]NLX binding to A7 membranes,[1],robustly displaced
same,IC50,"[1]; competition curve, 16 concentrations 0.2 pM to 1 μM, FIG. 4, read-out: IC50 for inhibition of [3H]NLX binding to membranes from FLNA-expressing A7 cells",43 pM
same,effect on acute morphine-induced G protein coupling switch by MOR,MOR-Gs coupling [2]; [6],prevented
same,effect on MOR coupling alone,MOR-Gs coupling [2]; without morphine,had no effect
same,effect on acute morphine-induced pS133CREB signal,pS133-CREB; [6],virtually abolished
same,"pS133CREB detection, treatment alone",pS133-CREB,did not result in pS^133CREB detection
same,effect on acute rewarding effects of oxycodone,[3]; 3 ng/kg,without effect
same,effect on acute rewarding effects of oxycodone,"[3]; 0.03, 0.3 and 30 ng/kg",blocked
"FLNA2566-2575: overlapping peptide encoding the c-terminal section of FLNA (GLSKAYVGQK; UniProt P21333 2566-2575, looked up, fragment)",effect on NLX-mediated prevention of cellular indices of morphine tolerance (Go-to-Gs switch and cAMP),MOR-Gs coupling [4],not
"FLNA2550-2560: overlapping peptide encoding the c-terminal section of FLNA (PGPGPADASKV; UniProt P21333 2550-2560, looked up, fragment)",effect on NLX-mediated prevention of cellular indices of morphine tolerance (Go-to-Gs switch and cAMP),MOR-Gs coupling [4],not
"VAAGL (SEQ ID NO:12) [control peptide, FLNA2561-2565 withone mid-point alanine substitution]",Go coupling at 15 minutes,"MOR-Gs coupling [2]; 10 μM peptide, 100 μM morphine, 15 minutes",mildly preserved
same,effect on acute morphine-induced coupling switch by MOR,MOR-Gs coupling [2]; 100 μM morphine,did not prevent
same,effect on acute morphine-induced pS133CREB signal,pS133-CREB; [7],did not significantly diminish
COc1ccccc1CC(=O)CC1c2c(cc3c(c2OC)OCO3)CC[N+]1(C)C (stereo not shown) [Compound 6],Stimulation of MOR at (at 0.1 μM),MOR,91%
same,Stimulation of other Go-coupled receptors,[5],23%
C[C@@H]1CCC2[C@]3(C)COC(C)(C)OC3CC[C@@]2(C)C12CCC(CO)(CCO)O2 (stereo partly shown) [Compound 2],Stimulation of MOR at (at 0.1 μM),MOR,67%
same,Stimulation of other Go-coupled receptors,[5],11%
C[C@@H](NC(=O)[C@@H](N)Cc1ccc(O)cc1)C(=O)NCC(=O)N(C)[C@@H](Cc1ccccc1)C(=O)NCCO [DAMGO],Stimulation of MOR at (at 0.1 μM),MOR,92%
same,Stimulation of other Go-coupled receptors,[5],6%
"FLNA2561-2570: overlapping peptide encoding the c-terminal section of FLNA (VAKGLGLSKA; UniProt P21333 2561-2570, looked up, fragment)",attenuation of [3H]NLX binding to A7 cell membranes,[1],markedly attenuated
same,attenuation of [3H]NLX binding to purified human FLNA,purified human FLNA,markedly attenuated
same,effect on NLX-mediated prevention of cellular indices of morphine tolerance (Go-to-Gs switch and cAMP),MOR-Gs coupling [4],abolished
CN1CC[C@]23c4c5ccc(O)c4O[C@H]2[C@@H](O)C=C[C@H]3[C@H]1C5 [morphine],displacement of [3H]NLX binding to A7 membranes,[1],not
same,Go-to-Gs coupling switch by MOR after chronic treatment,"MOR-Gs coupling [4]; 100 μM, 1 hour twice daily for 7 days",induced a robust Go-to-Gs coupling switch
same,pS133CREB level in striatal tissue,pS133-CREB; after 5 and 15 minutes of exposure,robust level
same,pS133CREB level in striatal tissue,pS133-CREB; after 1 hour of exposure,only a residual level
same,effect on DAMGO-mediated reduction in cAMP accumulation,cAMP accumulation; chronic 100 μM treatment,attenuated
COc1ccc(S(=O)(=O)N2CCC3(CC2)OCCN3S(=O)(=O)c2ccc(OC)cc2)cc1 [Compound 5],Kd,FLNA; read-out: FLNA affinity,8.65 pM
same,Stimulation of MOR at (at 0.1 μM),MOR,91%
same,Stimulation of other Go-coupled receptors,[5],11%
COc1cc(CCC(O)CC2c3c(cc4c(c3OC)OCO4)CCN2C)ccc1O (stereo not shown) [Compound 3],Stimulation of MOR at (at 0.1 μM),MOR,78%
same,Stimulation of other Go-coupled receptors,[5],16%
COc1ccc(C(=O)CC2c3c(cc4c(c3OC)OCO4)CC[N+]2(C)C)c(OC)c1 (stereo not shown) [Compound 7],Kd,FLNA; read-out: FLNA affinity,2.86 pM
same,Stimulation of MOR at (at 0.1 μM),MOR,64%
same,Stimulation of other Go-coupled receptors,[5],21%
"FLNA2556-2565: overlapping peptide encoding the c-terminal section of FLNA (DASKVVAKGL; UniProt P21333 2556-2565, looked up, fragment)",attenuation of [3H]NLX binding to A7 cell membranes,[1],markedly attenuated
same,attenuation of [3H]NLX binding to purified human FLNA,purified human FLNA,markedly attenuated
COC(OC)C12CCC(=O)C=C1CCC1C3CCC(OC(C)=O)C3(C)CCC12 (stereo not shown) [Compound 1],Stimulation of MOR at (at 0.1 μM),MOR,79%
same,Stimulation of other Go-coupled receptors,[5],19%
"C=CCN1CC[C@]23c4c5ccc(O)c4O[C@H]2C(=O)CC[C@@]3(O)[C@H]1C5 [Naloxone, naloxone]",Kd,purified human FLNA; read-out: binding affinity for immunopurified FLNA,~43 pM
same,effect on acute morphine-induced pS133CREB signal,pS133-CREB; [6],virtually abolished
same,"pS133CREB detection, treatment alone",pS133-CREB,did not result in pS^133CREB detection
same,effect on chronic morphine-induced attenuation of the DAMGO-induced reduction in cAMP production,cAMP accumulation; 10 pM with 100 μM morphine,blocked
VAKGL (SEQ ID NO:14) [decoy pentapeptide],effect on acute morphine-induced coupling switch by MOR,MOR-Gs coupling [2]; 100 μM morphine,completely prevented
same,effect on acute morphine-induced pS133CREB signal,pS133-CREB; [7],virtually abolished

# From patent US8492349B2, “Analgesia with minimal tolerance and dependence by a mu opioid receptor agonist that also binds filamin A” (Pain Therapeutics, Inc., priority 2007, dated 2013)
